# Experimental data published in PubChem BioAssay (NCI).
#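 Results reflect a 48-hour exposure of cells in 96-well plates to compound at five concentrations. TGI: concentration producing complete growth inhibition.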
# Legend:
# Test in all cases: NCI-60 cell line screen, 48 h
# HCT-15 colon = system: HCT-15 colon
# SR leukemia = system: SR leukemia
# SF-268 CNS = system: SF-268 CNS
# EKVX NSCLC = system: EKVX NSCLC
# UO-31 renal = system: UO-31 renal
# SW-620 colon = system: SW-620 colon
# HOP-92 NSCLC = system: HOP-92 NSCLC
# HS 578T breast = system: HS 578T breast
# T-47D breast = system: T-47D breast
# U251 CNS = system: U251 CNS
# KM12 colon = system: KM12 colon
# SNB-75 CNS = system: SNB-75 CNS
# A549 NSCLC = system: A549 NSCLC
# MDA-N = system: MDA-N
# NCI-H460 lung = system: NCI-H460 lung
# K-562 leukemia = system: K-562 leukemia
# MDA-MB-231 breast = system: MDA-MB-231 breast
# NCI-H226 lung = system: NCI-H226 lung
# OVCAR-3 ovarian = system: OVCAR-3 ovarian
# COLO 205 colon = system: COLO 205 colon
# TK-10 renal = system: TK-10 renal
# HT29 colon = system: HT29 colon
# IGROV1 ovarian = system: IGROV1 ovarian
# SF-539 CNS = system: SF-539 CNS
# DU-145 prostate = system: DU-145 prostate
# CCRF-CEM leukemia = system: CCRF-CEM leukemia
# HCT-116 colon = system: HCT-116 colon
# RPMI-8226 leukemia = system: RPMI-8226 leukemia
# BT-549 breast = system: BT-549 breast
# SF-295 CNS = system: SF-295 CNS
# HOP-62 NSCLC = system: HOP-62 NSCLC
# PC-3 prostate = system: PC-3 prostate
# HCC-2998 colon = system: HCC-2998 colon
# NCI/ADR-RES ovarian = system: NCI/ADR-RES ovarian
# CAKI-1 renal = system: CAKI-1 renal
# UACC-62 melanoma = system: UACC-62 melanoma
# MDA-MB-435 = system: MDA-MB-435
# NCI-H522 lung = system: NCI-H522 lung
# NCI-H23 lung = system: NCI-H23 lung
# SN12C renal = system: SN12C renal
# HL-60(TB) leukemia = system: HL-60(TB) leukemia
# OVCAR-8 ovarian = system: OVCAR-8 ovarian
# SK-MEL-5 melanoma = system: SK-MEL-5 melanoma
# A498 renal = system: A498 renal
# SK-MEL-28 melanoma = system: SK-MEL-28 melanoma
# MCF7 breast = system: MCF7 breast
# SK-MEL-2 melanoma = system: SK-MEL-2 melanoma
# LOX IMVI melanoma = system: LOX IMVI melanoma
# SK-OV-3 ovarian = system: SK-OV-3 ovarian
# MOLT-4 leukemia = system: MOLT-4 leukemia
# OVCAR-5 ovarian = system: OVCAR-5 ovarian
# 786-0 renal = system: 786-0 renal
# UACC-257 melanoma = system: UACC-257 melanoma
# ACHN renal = system: ACHN renal
# MALME-3M melanoma = system: MALME-3M melanoma
# OVCAR-4 ovarian = system: OVCAR-4 ovarian
# SNB-19 CNS = system: SNB-19 CNS
# RXF 393 renal = system: RXF 393 renal
# M14 melanoma = system: M14 melanoma
structure (smiles),measurement,setting,value
COc1ccc(NC(=S)N/N=C(\C)c2nc3ncccc3[nH]2)cc1,TGI,HCT-15 colon,> 100 µM
same,TGI,SR leukemia,> 100 µM
same,TGI,SF-268 CNS,> 100 µM
same,TGI,EKVX NSCLC,> 100 µM
same,TGI,UO-31 renal,12 µM
same,TGI,SW-620 colon,> 100 µM
same,TGI,HOP-92 NSCLC,37.7 µM
same,TGI,HS 578T breast,> 100 µM
same,TGI,T-47D breast,92.4 µM
same,TGI,U251 CNS,> 100 µM
same,TGI,KM12 colon,> 100 µM
same,TGI,SNB-75 CNS,70.6 µM
same,TGI,A549 NSCLC,> 100 µM
same,TGI,MDA-N,> 100 µM
same,TGI,NCI-H460 lung,37.9 µM
same,TGI,K-562 leukemia,> 100 µM
same,TGI,MDA-MB-231 breast,> 100 µM
same,TGI,NCI-H226 lung,21.7 µM
same,TGI,OVCAR-3 ovarian,6.9 µM
same,TGI,COLO 205 colon,> 100 µM
same,TGI,TK-10 renal,21.1 µM
same,TGI,HT29 colon,> 100 µM
same,TGI,IGROV1 ovarian,53.6 µM
same,TGI,SF-539 CNS,13.7 µM
same,TGI,DU-145 prostate,> 100 µM
same,TGI,CCRF-CEM leukemia,24.5 µM
same,TGI,HCT-116 colon,24.8 µM
same,TGI,RPMI-8226 leukemia,> 100 µM
same,TGI,BT-549 breast,42.3 µM
same,TGI,SF-295 CNS,> 100 µM
same,TGI,HOP-62 NSCLC,59.3 µM
same,TGI,PC-3 prostate,45.2 µM
same,TGI,HCC-2998 colon,> 100 µM
same,TGI,NCI/ADR-RES ovarian,> 100 µM
same,TGI,CAKI-1 renal,> 100 µM
same,TGI,UACC-62 melanoma,73.2 µM
same,TGI,MDA-MB-435,> 100 µM
same,TGI,NCI-H522 lung,37.5 µM
same,TGI,NCI-H23 lung,> 100 µM
same,TGI,SN12C renal,> 100 µM
same,TGI,HL-60(TB) leukemia,65.8 µM
same,TGI,OVCAR-8 ovarian,63.3 µM
same,TGI,SK-MEL-5 melanoma,29.1 µM
same,TGI,A498 renal,98.2 µM
same,TGI,SK-MEL-28 melanoma,> 100 µM
same,TGI,MCF7 breast,21.6 µM
same,TGI,SK-MEL-2 melanoma,> 100 µM
same,TGI,LOX IMVI melanoma,28.7 µM
same,TGI,SK-OV-3 ovarian,> 100 µM
same,TGI,MOLT-4 leukemia,43.9 µM
same,TGI,OVCAR-5 ovarian,> 100 µM
same,TGI,786-0 renal,> 100 µM
same,TGI,UACC-257 melanoma,> 100 µM
same,TGI,ACHN renal,> 100 µM
same,TGI,MALME-3M melanoma,> 100 µM
same,TGI,OVCAR-4 ovarian,> 100 µM
same,TGI,SNB-19 CNS,> 100 µM
CSc1ncnc2c1ncn2C1OC(CO)C(O)OC1O (stereo not given),TGI,HCT-15 colon,> 100 µM
same,TGI,SR leukemia,> 100 µM
same,TGI,SF-268 CNS,> 100 µM
same,TGI,EKVX NSCLC,> 66.3 µM
same,TGI,RXF 393 renal,38 µM
same,TGI,UO-31 renal,31.2 µM
same,TGI,SW-620 colon,> 100 µM
same,TGI,HOP-92 NSCLC,22.7 µM
same,TGI,HS 578T breast,> 100 µM
same,TGI,T-47D breast,17.7 µM
same,TGI,U251 CNS,30.1 µM
same,TGI,KM12 colon,36.8 µM
same,TGI,SNB-75 CNS,31.8 µM
same,TGI,A549 NSCLC,> 100 µM
same,TGI,MDA-N,27.7 µM
same,TGI,NCI-H460 lung,16 µM
same,TGI,K-562 leukemia,59.8 µM
same,TGI,MDA-MB-231 breast,14.6 µM
same,TGI,OVCAR-3 ovarian,16.7 µM
same,TGI,COLO 205 colon,11.8 µM
same,TGI,TK-10 renal,1.19 µM
same,TGI,HT29 colon,> 37.4 µM
same,TGI,IGROV1 ovarian,18.9 µM
same,TGI,SF-539 CNS,16.9 µM
same,TGI,DU-145 prostate,39.4 µM
same,TGI,CCRF-CEM leukemia,0.402 µM
same,TGI,HCT-116 colon,21.6 µM
same,TGI,RPMI-8226 leukemia,79.5 µM
same,TGI,BT-549 breast,48.5 µM
same,TGI,SF-295 CNS,> 71.3 µM
same,TGI,HOP-62 NSCLC,35.4 µM
same,TGI,PC-3 prostate,33.9 µM
same,TGI,NCI/ADR-RES ovarian,> 93.1 µM
same,TGI,CAKI-1 renal,> 51.7 µM
same,TGI,UACC-62 melanoma,18.5 µM
same,TGI,MDA-MB-435,23.8 µM
same,TGI,NCI-H522 lung,> 100 µM
same,TGI,NCI-H23 lung,> 44 µM
same,TGI,SN12C renal,41.3 µM
same,TGI,HL-60(TB) leukemia,11.7 µM
same,TGI,OVCAR-8 ovarian,52.4 µM
same,TGI,M14 melanoma,39.1 µM
same,TGI,SK-MEL-5 melanoma,17.6 µM
same,TGI,A498 renal,> 53.1 µM
same,TGI,SK-MEL-28 melanoma,69.5 µM
same,TGI,MCF7 breast,> 100 µM
same,TGI,SK-MEL-2 melanoma,18.9 µM
same,TGI,LOX IMVI melanoma,15.4 µM
same,TGI,SK-OV-3 ovarian,> 100 µM
same,TGI,MOLT-4 leukemia,30.1 µM
same,TGI,OVCAR-5 ovarian,> 23.3 µM
same,TGI,786-0 renal,43.5 µM
same,TGI,UACC-257 melanoma,15.2 µM
same,TGI,ACHN renal,> 100 µM
same,TGI,MALME-3M melanoma,70.5 µM
same,TGI,OVCAR-4 ovarian,96.3 µM
same,TGI,SNB-19 CNS,51.5 µM
Cc1ccc(C)c2c1CC(Cc1ccccc1C(=O)O)C2=O (stereo not given),TGI,HCT-15 colon,> 100 µM
same,TGI,SF-268 CNS,> 100 µM
same,TGI,EKVX NSCLC,> 100 µM
same,TGI,RXF 393 renal,> 100 µM
same,TGI,UO-31 renal,> 100 µM
same,TGI,SW-620 colon,> 100 µM
same,TGI,HOP-92 NSCLC,> 100 µM
same,TGI,HS 578T breast,> 100 µM
same,TGI,T-47D breast,> 100 µM
same,TGI,U251 CNS,> 100 µM
same,TGI,KM12 colon,> 100 µM
same,TGI,SNB-75 CNS,> 100 µM
same,TGI,A549 NSCLC,> 100 µM
same,TGI,MDA-N,> 100 µM
same,TGI,NCI-H460 lung,> 100 µM
same,TGI,K-562 leukemia,> 100 µM
same,TGI,MDA-MB-231 breast,> 100 µM
same,TGI,NCI-H226 lung,> 100 µM
same,TGI,OVCAR-3 ovarian,> 100 µM
same,TGI,COLO 205 colon,> 100 µM
same,TGI,TK-10 renal,> 100 µM
same,TGI,HT29 colon,> 100 µM
same,TGI,IGROV1 ovarian,> 100 µM
same,TGI,SF-539 CNS,> 100 µM
same,TGI,DU-145 prostate,> 100 µM
same,TGI,CCRF-CEM leukemia,> 100 µM
same,TGI,HCT-116 colon,> 100 µM
same,TGI,BT-549 breast,> 100 µM
same,TGI,SF-295 CNS,> 100 µM
same,TGI,HOP-62 NSCLC,> 100 µM
same,TGI,PC-3 prostate,> 100 µM
same,TGI,HCC-2998 colon,> 100 µM
same,TGI,NCI/ADR-RES ovarian,> 100 µM
same,TGI,CAKI-1 renal,> 100 µM
same,TGI,UACC-62 melanoma,> 100 µM
same,TGI,MDA-MB-435,> 100 µM
same,TGI,NCI-H522 lung,> 100 µM
same,TGI,NCI-H23 lung,> 100 µM
same,TGI,SN12C renal,> 100 µM
same,TGI,HL-60(TB) leukemia,> 100 µM
same,TGI,OVCAR-8 ovarian,> 100 µM
same,TGI,M14 melanoma,> 100 µM
same,TGI,SK-MEL-5 melanoma,> 100 µM
same,TGI,SK-MEL-28 melanoma,> 100 µM
same,TGI,MCF7 breast,> 100 µM
same,TGI,SK-MEL-2 melanoma,> 100 µM
same,TGI,LOX IMVI melanoma,> 100 µM
same,TGI,SK-OV-3 ovarian,> 100 µM
same,TGI,MOLT-4 leukemia,> 100 µM
same,TGI,OVCAR-5 ovarian,> 100 µM
same,TGI,786-0 renal,> 100 µM
same,TGI,UACC-257 melanoma,> 100 µM
same,TGI,ACHN renal,> 100 µM
same,TGI,MALME-3M melanoma,> 100 µM
same,TGI,OVCAR-4 ovarian,> 100 µM
same,TGI,SNB-19 CNS,> 100 µM
